Among the test systems are COLO 205; HCT-15; HL-60; HOP-62; HT-29; MCF7; MOLT-4; Malme-3M; OVCAR-3; OVCAR-4; OVCAR-5; SF-539; SNB-75; UACC-257; UO-31; HCT-116; SN12C; KM-20L2; SNB-78.
Assay in all cases: DTP human tumour cell line panel, 48 h

From ChEMBL document CHEMBL1201862, “PubChem BioAssay data set” (2004) come the findings set out here.

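Five compound concentrations were applied to cells in 96-well plates for 48 hours; endpoints were derived by simple linear interpolation of the resulting dose-response curve. Here, GI50 denotes the concentration required for 50% inhibition of growth.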 The source made the active and inactive calls. Rule as the data show it: active = GI50 up to about 1.1 µM and inactive = higher.

Turning to `CN(CCO)Cc1ncccc1O`, the GI50 in the assay with COLO 205 was > 100 µM (inactive); in the assay on HCT-15, above 100 µM; with HL-60, 64.3 µM (inactive); with HOP-62 it was > 100 µM (inactive); with HT-29 it was > 100 µM (inactive); in the assay on MCF7, > 100 µM (inactive). Besides, the GI50 is 25.5 µM (inactive) in the assay on MOLT-4; > 100 µM (inactive) in the assay on Malme-3M; > 100 µM (inactive) in the assay on OVCAR-3; > 100 µM (inactive) in the assay on OVCAR-4; > 100 µM (inactive) with OVCAR-5; > 100 µM (inactive) in the assay with SF-539. Also, the GI50 in the assay with SNB-75, in the assay on UACC-257 and in the assay on UO-31 was > 100 µM (inactive) throughout.
For the molecule `CON(C)C(C#N)=C(C#N)C#N`, the GI50 with COLO 205 was > 10 µM (inactive); in the assay on HCT-116 it was > 10 µM (inactive); in the assay on HCT-15, above 10 µM; in the assay on HL-60 it was > 10 µM (inactive); in the assay with HOP-62 it was > 10 µM (inactive); in the assay with HT-29, > 10 µM (inactive). In addition, the GI50 in the assay with MCF7, with MOLT-4, in the assay on Malme-3M, with OVCAR-3, in the assay on OVCAR-4 and with OVCAR-5 was > 10 µM (inactive) each time. In addition, the GI50 in the assay on SF-539, in the assay with SN12C, in the assay on SNB-75 and in the assay on UO-31 was > 10 µM (inactive) in each case.
On to `O=C1c2ccccc2N(O)C1(c1ccccc1)C1CCCC=C1N1CCOCC1` (stereo not drawn), for which the GI50 with COLO 205 was > 100 µM (inactive); in the assay on HCT-116, 28.5 µM (inactive); with HCT-15, 91.2 µM; in the assay with HL-60, 50.4 µM (inactive); in the assay on HOP-62, > 100 µM (inactive); in the assay with HT-29 it was > 100 µM (inactive). The GI50 with KM-20L2 is > 100 µM (inactive); in the assay with MOLT-4, 20.8 µM (inactive); in the assay on OVCAR-3 it was > 100 µM (inactive); in the assay on OVCAR-5, > 100 µM (inactive); in the assay on SF-539, 80.9 µM (inactive); in the assay on SN12C, > 100 µM (inactive). Besides, the GI50 is 18.4 µM (inactive) in the assay on SNB-75, > 100 µM (inactive) in the assay on SNB-78, 70.6 µM (inactive) with UACC-257 and 22.5 µM (inactive) in the assay on UO-31.
`O=[N+]([O-])c1ccc(N2N=C(c3ccc(NCc4nc5ccccc5[nH]4)cc3)CC2c2ccco2)cc1` (stereo not drawn): the GI50 in the assay on COLO 205 is 30.8 µM (inactive); in the assay on HCT-116, 16.2 µM (inactive); in the assay with HCT-15, 21.3 µM; in the assay with HL-60, 17.6 µM (inactive); in the assay with HOP-62 it was 37.2 µM (inactive); with HT-29 it was 27.5 µM (inactive). Also, the GI50 is 10.4 µM (inactive) with MOLT-4; 28.5 µM (inactive) in the assay with Malme-3M; 21.8 µM (inactive) in the assay with OVCAR-3; 20.2 µM (inactive) with OVCAR-4; 49 µM (inactive) in the assay with OVCAR-5; 26.1 µM (inactive) with SF-539. Besides, the GI50 in the assay with SN12C was 20.3 µM (inactive); in the assay on SNB-75, 27.9 µM (inactive); in the assay with UO-31 it was 6.53 µM (inactive).
With `CC(=O)Nc1ccc(C(=O)NN2C(=O)C(Cl)/C2=C/c2ccco2)cc1` (stereo not drawn), the GI50 in the assay on COLO 205, in the assay with HCT-116, in the assay on HL-60, with HOP-62, in the assay on HT-29 and with MOLT-4 was > 100 µM (inactive) each time. For the same molecule, the GI50 with Malme-3M, in the assay with OVCAR-3, in the assay with OVCAR-5, in the assay on SF-539, with SNB-75 and with UACC-257 was > 100 µM (inactive) in each case. For the same molecule, the GI50 with UO-31 is > 100 µM (inactive).
On to `CC1CC/C(=C\c2ccc(N(C)C)cc2)C2=C1C(c1ccc(N(C)C)cc1)NC(=S)N2` (stereo not drawn), for which the GI50 in the assay on COLO 205 is > 100 µM (inactive); in the assay with HCT-116, > 100 µM (inactive); in the assay on HCT-15 it was above 100 µM; in the assay with HL-60, > 100 µM (inactive); with HT-29, > 100 µM (inactive); with MCF7 it was > 100 µM (inactive). Besides, the GI50 in the assay on MOLT-4, with Malme-3M, in the assay on OVCAR-3, in the assay on OVCAR-5, in the assay with SF-539 and in the assay on SN12C was > 100 µM (inactive) throughout. Also, the GI50 with SNB-75, in the assay on UACC-257 and in the assay with UO-31 was > 100 µM (inactive) each time.
Regarding `O=C(/C=C/c1ccc(OCc2ccccc2)cc1)NCc1ccc(C(=O)NCc2ccccc2)cc1`, the GI50 in the assay with COLO 205 is > 100 µM (inactive); with HCT-116, > 100 µM (inactive); in the assay with HCT-15 it was above 100 µM; in the assay with HOP-62 it was > 100 µM (inactive); in the assay with HT-29, > 100 µM (inactive); in the assay on MCF7 it was > 100 µM (inactive). Moreover, the GI50 in the assay with MOLT-4, in the assay on Malme-3M, in the assay on OVCAR-3, with OVCAR-4, in the assay on OVCAR-5 and in the assay on SF-539 was > 100 µM (inactive) each time. The GI50 in the assay with SN12C was > 100 µM (inactive); in the assay with SNB-75 it was 36.6 µM (inactive); in the assay with UACC-257 it was > 100 µM (inactive); with UO-31 it was > 100 µM (inactive).
With `CN(C)C(=O)NCCN1CCCCCc2ccccc21`, the GI50 is > 100 µM (inactive) in the assay on COLO 205; > 100 µM (inactive) in the assay on HCT-116; above 100 µM with HCT-15; 31.3 µM (inactive) in the assay on HL-60; > 100 µM (inactive) in the assay with HOP-62; > 100 µM (inactive) with HT-29. The GI50 in the assay with MCF7 is > 100 µM (inactive); with MOLT-4, 93.1 µM (inactive); with Malme-3M it was > 100 µM (inactive); with OVCAR-3 it was 37 µM (inactive); in the assay on OVCAR-4, 78 µM (inactive); in the assay on OVCAR-5, > 100 µM (inactive). Also, the GI50 in the assay with SF-539 is > 100 µM (inactive); in the assay on SN12C it was > 100 µM (inactive); with UACC-257, 76 µM (inactive); with UO-31, > 100 µM (inactive).
`CC[C@H](O)[C@H](C)C=C1SCCCS1`: the GI50 in the assay on COLO 205 was > 100 µM (inactive); in the assay with HCT-116 it was > 100 µM (inactive); with HCT-15, above 100 µM; in the assay with HL-60, 34.8 µM (inactive); with HOP-62 it was > 100 µM (inactive); in the assay on HT-29 it was > 100 µM (inactive). Further, the GI50 in the assay on MCF7, in the assay with MOLT-4, with Malme-3M, in the assay with OVCAR-3, with OVCAR-4 and in the assay with OVCAR-5 was > 100 µM (inactive) throughout. For the same molecule, the GI50 in the assay with SN12C is > 100 µM (inactive); in the assay with SNB-75, > 100 µM (inactive); with UACC-257, > 100 µM (inactive); with UO-31 it was 61.8 µM (inactive).
With `CCOC(=O)c1cc(Br)c(-c2cc(C)no2)[nH]1`, the GI50 is 19.8 µM (inactive) with COLO 205; 27.3 µM (inactive) in the assay with HCT-116; 25 µM in the assay with HCT-15; 24.7 µM (inactive) in the assay on HL-60; 41.6 µM (inactive) in the assay with HT-29; 82 µM (inactive) in the assay on MOLT-4. In addition, the GI50 with Malme-3M was 20.9 µM (inactive); in the assay on OVCAR-3, 21.3 µM (inactive); in the assay with OVCAR-4, 23.3 µM (inactive); with OVCAR-5 it was 49 µM (inactive); with SF-539, 33.8 µM (inactive); with SN12C, 32 µM (inactive). Further, the values for the GI50 in the assay on SNB-75, with UACC-257 and with UO-31 were 23.9 µM (inactive), 28.1 µM (inactive) and 29.1 µM (inactive), respectively.
